This note sets out measurements from patent publication US20240209028A1, “CNP COMPOUNDS” (priority 2022, published 2024).

SMILES strings stand for the structures. ≈ marks a conversion by molar mass, not a printed value. Starred links: 1 amine or outer side, 2 acyl side, 3 side chain; linkers in the order of their positions; H or OH if unused. Positions of bridges follow the written chain, without caps; N, C: chain ends. Residues, ends and D or L forms follow the SMILES beside them. *: point of attachment. C20 diacid = O=C(O)CCCCCCCCCCCCCCCCCCC(=O)*; C18 diacid = O=C(O)CCCCCCCCCCCCCCCCC(=O)*; γGlu = O=C(O)[C@H](CCC(=O)[*:2])N[*:1]; AEEA = NCCOCCOCC(=O)O

A short description of series [1]: PK of CNP compounds after i.v. and s.c. administration to rats. The settings on record: male, Sprague Dawley, in vivo, iv, rat, i.v., about 100 nmol/kg. Here is the method:
In order to assess the i.v. and s.c. PK/PD profile of CNP compounds of the present invention, formulations of CNP compounds were administered to rats, blood samples taken and exposure and cGMP response measured.
Quantitative plasma analysis of CNP-compounds: Plasma concentrations of CNP compounds were assayed by plasma protein precipitation and analysed by turboflow liquid chromatography mass spectrometry (TF-LC-MS). Calibrators were prepared by spiking either blank rat or minipig plasma with the relevant CNP compound in the range from 0.5 to 2000 nM. Calibrators, plasma blanks or study samples were prepared for TF-LC-MS by protein precipitation by adding three or four volumes of either ethanol or methanol containing 20 nM of internal standard to one volume of sample. For some compounds, formic acid was added to the precipitation reagent (the final concentration was 1% v/v). After the addition of the precipitation reagent, the mixture was centrifuged at 6200 rpm at 4° C. for 30 minutes. After centrifugation, one volume of supernatant was mixed with two volumes of water (with 1% v/v formic acid). The mixture was analysed by TF-LC-MS using a Cyclone turboflow column (0.5×50 mm, ThermoFisher Scientific) and either a XBridge Protein BEH C4 3.5 μm 300 Åor a XBridge Protein BEH C18 3.5 μm 130 Åanalytical column (both were 50×2.1 mm and obtained from Waters). […] The mass spectrometer was operated in positive ionisation mode. A TSQ Altis mass spectrometer (ThermoFisher Scientific) was used as detector in selected reaction monitoring mode (specific transition were optimised for each CNP compound). Linear calibration curves (weighed 1/×2) were used for calculating the concentration in the plasma samples. Quality control samples were included. The deviation between nominal and calculated concentration in the calibrators and quality control samples were below 15%.
Animals and dosing: Groups of 4-6 rats (male, Sprague Dawley, 350 g at arrival, Janvier, France) per compound and route of administration were dosed with a CNP compound formulated either in A) 8 mM sodium phosphate, 250 mM glycerol, 0.007% polysorbate 20, pH 7.4 or B) 5 mM sodium acetate, 250 mM glycerol, 0.007% polysorbate 20, pH 4.0 depending on the respective compound. S.c. dose was 300 nmol/kg, at a concentration of […] resulting in a dosing volume of 0.3 mL/kg, whereas i.v. dose was 100 nmol/kg, at a concentration of […] resulting in a dosing volume of 1 mL/kg.
Sampling: Sublingual blood samples of 250 uL were collected from unanaesthetised rats in EDTA-coated vials (Microvette 600K3E ref #15.1673.100 Sarstedt) at baseline (-1 h before dosing) as well as 5 min (only i.v. dosed groups), 2 h, 6 h, 24 h, 48 h and 72 h (only for exposure analysis) post-dosing. The blood samples were quickly stored on ice and centrifuged (4° C., 8000 RPM, 5 min) within 10 min of collection. Plasma samples of 50 μL were transferred to each micronic tube for either exposure or cGMP analysis, kept on dry ice and stored in a freezer (−20° C.). Rats had access to food (Altromin) and tap water ad libitum.
Analysis: PK parameters were calculated by non-compartment analysis (NCA) using software Phoenix WinNonlin (ver. 8.1 or later, Certara) for each animal. Clearance (Cl) was calculated as: Dose/AUCinf (linear up, log down). […] Bioavailability was calculated as dose normalized AUC's: (AUC(sc)/Dose(sc))/(AUC(iv)/Dose(iv)). Values in the table are means from individual animals (n=4-6 individual animals). The subsequent plots for cGMP plasma concentration versus time are (Y-axis) mean cGMP concentration (n=4-6 individual animals) after IV dosing and (X-axis) nominal plasma sampling time.
Plasma cGMP are reported as the mean.

Series [2] in a line: Solubility of CNP compounds at pH 4.0 and pH 6.5. Type of series: physicochemical. Conditions: 8 mM sodium phosphate, 23 mg/mL glycerol, pH 6.5, room temperature; read-out: Solubility at pH 6.5. How it is done:
In order to assess the suitability of CNP compounds for a soluble liquid formulation, the solubility of CNP compounds in pharmaceutically relevant buffers were measured. Solubility at two different pH-levels (pH 4.0 and pH 6.5) was examined as pH is expected to affect solubility.
Preparation of pH 4.0 samples: The pH 4.0 samples of the CNP compounds were prepared by mixing freeze dried peptide with a pH 4.0 5 mM sodium acetate, 250 mM glycerol buffer at room temperature to a nominal concentration of at least 4000-5000 nmol/mL. The pH of the samples was measured and adjusted to pH 4.0 and the samples were allowed to equilibrate at room temperature until next day if not fully dissolved.
Preparation of pH 6.5 samples: The pH 6.5 samples of the CNP compounds were prepared by dissolving the freeze dried peptide in water. While stirring, a part of the peptide solution was transferred to a buffer consisting of 41 mM sodium phosphate and 118 mg/mL glycerol, pH 7.5-8.0, followed by addition of diluted sodium hydroxide followed by another part of the peptide solution and further addition of diluted sodium hydroxide. This procedure was repeated until all of the peptide solution had been added where a nominal concentration of at least 4000-5000 nmol/mL had been reached and the buffer composition was 8 mM sodium phosphate, 23 mg/mL glycerol. The pH of the samples were measured and adjusted to pH 6.5 and the samples were allowed to equilibrate at room temperature until next day if not fully dissolved.
Procedure: Samples at pH 4.0 were prepared as described above and the compound concentration in the supernatant was determined using CAD (Method F, CAD02).
Samples at pH 6.5 were prepared as described above and peptide concentration in the supernatant was determined by CAD (Method F, CAD02).

Series [3] deals with T1, human natriuretic peptide receptor 2 (hNPR2) (Homo sapiens, UniProt P20594).
T1 construct: expressed in transfected cells; host or cells: HEK293 (ATCC CRL-1573), clone 35, co-transfected with pGloSensor-42F
T1 sequence (P20594 23-1047): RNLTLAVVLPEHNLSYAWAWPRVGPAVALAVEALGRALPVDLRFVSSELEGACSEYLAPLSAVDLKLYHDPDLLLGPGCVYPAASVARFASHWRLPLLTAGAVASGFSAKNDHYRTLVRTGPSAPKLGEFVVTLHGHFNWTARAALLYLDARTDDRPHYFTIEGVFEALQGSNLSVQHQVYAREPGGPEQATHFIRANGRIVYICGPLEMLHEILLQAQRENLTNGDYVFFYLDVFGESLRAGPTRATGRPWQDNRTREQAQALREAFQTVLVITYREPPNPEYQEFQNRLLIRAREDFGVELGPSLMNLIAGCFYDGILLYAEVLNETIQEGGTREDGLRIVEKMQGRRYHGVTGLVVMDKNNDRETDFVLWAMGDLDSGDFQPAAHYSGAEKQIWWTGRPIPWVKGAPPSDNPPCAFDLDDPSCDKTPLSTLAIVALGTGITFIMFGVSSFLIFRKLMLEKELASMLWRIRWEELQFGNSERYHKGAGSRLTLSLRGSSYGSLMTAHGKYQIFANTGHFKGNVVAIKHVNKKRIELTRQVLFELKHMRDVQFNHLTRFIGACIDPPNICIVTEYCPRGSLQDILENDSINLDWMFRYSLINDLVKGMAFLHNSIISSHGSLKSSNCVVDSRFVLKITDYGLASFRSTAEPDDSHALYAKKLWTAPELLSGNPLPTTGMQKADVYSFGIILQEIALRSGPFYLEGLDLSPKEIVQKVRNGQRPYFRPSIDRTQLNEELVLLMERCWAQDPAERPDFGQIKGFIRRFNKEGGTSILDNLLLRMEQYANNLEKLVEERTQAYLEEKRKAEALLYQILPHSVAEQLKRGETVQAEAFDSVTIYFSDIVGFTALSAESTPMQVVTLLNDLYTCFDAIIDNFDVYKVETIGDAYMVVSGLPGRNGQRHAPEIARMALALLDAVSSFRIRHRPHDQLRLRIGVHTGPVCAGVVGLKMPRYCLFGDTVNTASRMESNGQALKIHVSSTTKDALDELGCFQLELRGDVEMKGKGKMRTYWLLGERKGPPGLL
Nature of the series: In vitro hNPR2 activity assay (cGMP GloSensor reporter, HEK293). Format: cell-based. The settings on record: potency relative to CNP22 (0065). The procedure, abridged: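 Potency is the EC50 from a four-parameter logistic fit, also expressed relative to the in-plate CNP22 control (×100), with at least two replicates. Compounds (ten concentrations, […], HSA-free diluent with 1% OVA, 0.01% Tween20) were incubated 30 min at 37 °C on HEK293 cells co-expressing hNPR2 and a GloSensor cGMP luciferase. Luminescence detected with Bright-Glo.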

As to `CC[C@H](C)[C@@H]1NC(=O)[C@H](CCCNC(=N)N)NC(=O)[C@H](CC(=O)O)NC(=O)[C@H](CC(C)C)NC(=O)[C@@H]2CCCN2C(=O)[C@H](CC(C)C)NC(=O)CNC(=O)[C@H](Cc2ccccc2)NC(=O)[C@@H](NC(=O)CNC(=O)[C@H](CCCCN)NC(=O)[C@H](CO)NC(=O)[C@H](CC(C)C)NC(=O)CNC(=O)[C@H](CCCCN)NC(=O)[C@H](CCCCN)NC(=O)[C@H](CCC(N)=O)NC(=O)[C@H](C)NC(=O)CNC(=O)[C@H](CCC(=O)O)NC(=O)[C@H](Cc2ccc(O)cc2)NC(=O)COCCOCCNC(=O)COCCOCCNC(=O)CC[C@H](NC(=O)CCCCCCCCCCCCCCCCCCC(=O)O)C(=O)O)CSSC[C@@H](C(=O)O)NC(=O)CNC(=O)[C@H](CC(C)C)NC(=O)CNC(=O)[C@H](CO)NC(=O)[C@H](CC(C)C)NC(=O)[C@H](CO)NC(=O)CNC1=O` [compound 1376] ({C20 diacid-γGlu-AEEA-AEEA}-YEGAQKKGLSKGCFGLPLDRIGSLSGLGC-OH; disulfide 13-29), the clearance in series [1] (read-out: Cl (L/hr/kg), i.v. administration (converted)) was 0.00418 L/h/kg. Further, the half-life in series [1] (read-out: T½ (hr), i.v. administration (converted)) was 9.55 h.

A word on the solubility: it is the concentration that dissolves in the medium under given conditions. Turning to `CC[C@H](C)[C@@H]1NC(=O)[C@H](CCCNC(=N)N)NC(=O)[C@H](CC(=O)O)NC(=O)[C@H](CC(C)C)NC(=O)[C@@H]2CCCN2C(=O)[C@H](CC(C)C)NC(=O)CNC(=O)[C@H](Cc2ccccc2)NC(=O)[C@@H](NC(=O)CNC(=O)[C@H](CO)NC(=O)[C@H](CO)NC(=O)[C@@H](NC(=O)CNC(=O)[C@@H](NC(=O)[C@H](Cc2c[nH]cn2)NC(=O)[C@H](CCC(N)=O)NC(=O)[C@H](C)NC(=O)CNC(=O)[C@H](Cc2c[nH]cn2)NC(=O)[C@H](Cc2ccc(O)cc2)NC(=O)[C@H](CCCCN)NC(=O)[C@H](CCCNC(=N)N)NC(=O)[C@H](C)NC(=O)COCCOCCNC(=O)COCCOCCNC(=O)CC[C@H](NC(=O)CC[C@H](NC(=O)CCCCCCCCCCCCCCCCC(=O)O)C(=O)O)C(=O)O)[C@@H](C)O)C(C)C)CSSC[C@@H](C(=O)O)NC(=O)CNC(=O)[C@H](CC(C)C)NC(=O)CNC(=O)[C@H](CO)NC(=O)[C@H](CC(C)C)NC(=O)[C@H](CO)NC(=O)CNC1=O` [compound 1419] ({C18 diacid-γGlu-γGlu-AEEA-AEEA}-ARKYHGAQHTGVSSGCFGLPLDRIGSLSGLGC-OH; disulfide 16-32), the solubility in series [2] amounted to 318 µM (≈ 1300 µg/mL). For the same compound, the “hNPR2 0% HSA. [EC50% rel CNP]” value in series [3] turned out to be 37.2%.

Take `CC[C@H](C)[C@@H]1NC(=O)[C@H](CCCNC(=N)N)NC(=O)[C@H](CC(=O)O)NC(=O)[C@H](CC(C)C)NC(=O)[C@@H]2CCCN2C(=O)[C@H](CC(C)C)NC(=O)CNC(=O)[C@H](Cc2ccccc2)NC(=O)[C@@H](NC(=O)CNC(=O)[C@H](CO)NC(=O)[C@H](CO)NC(=O)[C@@H](NC(=O)CNC(=O)[C@@H](NC(=O)[C@H](CCCCN)NC(=O)[C@H](CCC(N)=O)NC(=O)[C@H](C)NC(=O)CNC(=O)[C@H](CCCCN)NC(=O)[C@H](Cc2ccc(O)cc2)NC(=O)[C@H](CCCCN)NC(=O)[C@H](CCCNC(=N)N)NC(=O)[C@H](C)NC(=O)COCCOCCNC(=O)COCCOCCNC(=O)CC[C@H](NC(=O)CC[C@H](NC(=O)CC[C@H](NC(=O)CCCCCCCCCCCCCCCCC(=O)O)C(=O)O)C(=O)O)C(=O)O)[C@@H](C)O)C(C)C)CSSC[C@@H](C(=O)O)NC(=O)CNC(=O)[C@H](CC(C)C)NC(=O)CNC(=O)[C@H](CO)NC(=O)[C@H](CC(C)C)NC(=O)[C@H](CO)NC(=O)CNC1=O` [compound 1421] ({C18 diacid-γGlu-γGlu-γGlu-AEEA-AEEA}-ARKYKGAQKTGVSSGCFGLPLDRIGSLSGLGC-OH; disulfide 16-32): the solubility in series [2] was 857 µM (≈ 3600 µg/mL). Further, in series [3], the “hNPR2 0% HSA. [EC50% rel CNP]” value is 50.0%.
